The values below come from PMC4774911, “Biochemical Screening of Five Protein Kinases from Plasmodium falciparum against 14,000 Cell-Active Compounds” (PLoS ONE, 2016).

The target in assay [1] is T1, Plasmodium falciparum calcium-dependent protein kinase 1 (CDPK1) (Plasmodium falciparum, UniProt P62344).
T1 construct: 6-Histidine (N); made in house
Nature of the assay: CDPK1 Kinase-Glo ATP-consumption screen and dose-response. It counts as biochemical. Particulars: hits below 1 uM; read-out: CDPK1 IC50. The essentials: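 ATP consumption by recombinant P. falciparum CDPK4 or CDPK1 measured as residual ATP by Kinase-Glo luminescence, with 40 μM Syntide-2 substrate and 90 min incubation stopped with 5 mM EGTA. Single-point screen at 1 μM final, followed by dose-response; no-substrate wells as negative control.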
Background: Kinase-Glo reads ATP consumption through a luciferase reaction.

The next assay has as its system P. falciparum DD2. Set-up: method as in ChEMBL. Particulars: ref ChEMBL; cited from earlier work.
The test system of the next assay is HepG2 cells. To be noted: cited from earlier work.
A further assay deals with P. falciparum 3D7 cells. Particulars: cited from earlier work.
The test system of assay [2] is 3D7 PFLDH. Set-up: method as in ChEMBL. Particulars: ref ChEMBL; cited from earlier work.
The subject of assay [3] is 3D7 PFLDH. Set-up: method as in downloaded from ChEMBL. To be noted: ref downloaded from ChEMBL; cited from earlier work.
Assay [4] has as its target T2, Plasmodium falciparum protein kinase 6 (PK6) (Plasmodium falciparum, UniProt Q8IDW1).
T2 construct: 6-Histidine (N); made in house
T2 sequence (Q8IDW1 1-305): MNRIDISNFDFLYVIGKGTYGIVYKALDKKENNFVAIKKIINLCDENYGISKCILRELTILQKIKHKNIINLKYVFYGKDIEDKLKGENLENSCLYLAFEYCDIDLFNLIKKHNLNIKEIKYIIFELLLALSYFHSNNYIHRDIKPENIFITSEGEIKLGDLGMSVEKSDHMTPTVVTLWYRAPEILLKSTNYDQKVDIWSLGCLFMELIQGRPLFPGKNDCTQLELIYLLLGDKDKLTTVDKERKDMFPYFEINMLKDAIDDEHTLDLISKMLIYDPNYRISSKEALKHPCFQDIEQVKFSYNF
Description: biochemical. To be noted: hits below 1 uM; read-out: PK6 IC50.

Assay [5] has as its target T3, Plasmodium falciparum calcium-dependent protein kinase 4 (CDPK4) (Plasmodium falciparum, UniProt Q8IBS5).
T3 construct: 6-Histidine (N); made in house
T3 sequence (Q8IBS5 1-528): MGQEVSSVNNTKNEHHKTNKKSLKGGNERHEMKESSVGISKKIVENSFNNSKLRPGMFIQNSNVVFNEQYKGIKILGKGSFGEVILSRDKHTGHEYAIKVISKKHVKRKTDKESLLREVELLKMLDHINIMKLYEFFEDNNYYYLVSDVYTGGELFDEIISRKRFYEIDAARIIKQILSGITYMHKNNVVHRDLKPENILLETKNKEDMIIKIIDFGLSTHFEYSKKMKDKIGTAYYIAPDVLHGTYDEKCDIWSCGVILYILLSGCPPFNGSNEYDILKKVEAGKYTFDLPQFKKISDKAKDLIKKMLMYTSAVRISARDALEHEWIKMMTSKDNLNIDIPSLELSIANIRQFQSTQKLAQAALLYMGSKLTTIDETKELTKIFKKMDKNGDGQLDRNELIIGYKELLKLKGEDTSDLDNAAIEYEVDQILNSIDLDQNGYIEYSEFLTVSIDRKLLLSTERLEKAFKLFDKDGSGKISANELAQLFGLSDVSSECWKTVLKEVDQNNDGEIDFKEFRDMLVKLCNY
Nature of the assay: CDPK4 Kinase-Glo ATP-consumption screen and dose-response. To be noted: hits below 1 uM. It counts as biochemical. How it is done: Biochemical assays were performed in white 384-well plates (Nunc). Liquid transfers were done manually with 8-channel pipets. Compounds were initially tested in a single-point screen (final concentration 1 μM). […] The catalytic activity of each kinase was considered proportional to ATP consumed, as determined from measurements of residual [ATP] with the luciferase-based reagent Kinase-Glo (Promega) following incubation. Luminescence (proportional to residual [ATP]) was measured on the plate readers FLx800 (BioTek Instruments, Winooski, VT, USA) and MicroBeta^2 (PerkinElmer, Waltham, MA, USA). Incubation times were chosen to ensure near-complete ATP depletion in the absence of inhibition, thus maximizing the difference in signal between inhibited and uninhibited wells.
40 μM Syntide-2 was used as a substrate; BKI-1 [14] was used as a control inhibitor, while reaction mixtures lacking Syntide-2 were included as an additional negative control. Incubation time was 90 minutes. Reactions were terminated by adding excess EGTA (5 mM), which sequesters Ca^2+ and halts calcium-dependent kinase activity.

Another assay deals with PKG (Plasmodium falciparum, UniProt Q8I719). Nature of the assay: PKG IC50 (supplementary data file). It counts as biochemical. From the text: Supplement pone.0149996.s003.xls, sheet "combined_1_sorted"
Sequence of PKG (Q8I719 whole entry): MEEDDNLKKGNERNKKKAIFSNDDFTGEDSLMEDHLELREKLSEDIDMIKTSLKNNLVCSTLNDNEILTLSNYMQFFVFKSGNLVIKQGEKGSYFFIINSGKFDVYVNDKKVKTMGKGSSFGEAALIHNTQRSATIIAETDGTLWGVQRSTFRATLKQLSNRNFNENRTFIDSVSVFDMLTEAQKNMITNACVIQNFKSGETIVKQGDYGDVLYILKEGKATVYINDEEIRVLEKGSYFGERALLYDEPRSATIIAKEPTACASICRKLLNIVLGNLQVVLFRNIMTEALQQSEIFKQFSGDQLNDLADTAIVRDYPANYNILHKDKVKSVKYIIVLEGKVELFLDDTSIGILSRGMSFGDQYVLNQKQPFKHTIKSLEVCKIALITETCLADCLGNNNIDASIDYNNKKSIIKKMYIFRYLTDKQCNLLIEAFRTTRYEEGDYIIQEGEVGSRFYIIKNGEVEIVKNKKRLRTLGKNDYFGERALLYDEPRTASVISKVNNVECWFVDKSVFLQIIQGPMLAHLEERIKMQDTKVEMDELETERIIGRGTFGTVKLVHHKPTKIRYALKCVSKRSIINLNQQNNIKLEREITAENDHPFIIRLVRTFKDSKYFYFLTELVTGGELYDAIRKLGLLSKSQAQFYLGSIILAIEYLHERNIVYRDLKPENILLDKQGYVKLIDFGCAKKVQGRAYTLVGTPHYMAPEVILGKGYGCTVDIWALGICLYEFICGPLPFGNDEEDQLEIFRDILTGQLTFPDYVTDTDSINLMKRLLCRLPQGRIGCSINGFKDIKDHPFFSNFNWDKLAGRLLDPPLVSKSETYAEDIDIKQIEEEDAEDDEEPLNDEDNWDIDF
The test system of the next assay is DD2. Also noted: method as in downloaded from ChEMBL. Particulars: ref downloaded from ChEMBL; cited from earlier work.
Where [6] appears, read: HEPG2, ref downloaded from ChEMBL.
[7] abbreviates: 3D7, ref downloaded from ChEMBL.

Each structure is given as a SMILES string. Where two headings read alike, the source gives them in different places.

T1 sequence (P62344 whole entry): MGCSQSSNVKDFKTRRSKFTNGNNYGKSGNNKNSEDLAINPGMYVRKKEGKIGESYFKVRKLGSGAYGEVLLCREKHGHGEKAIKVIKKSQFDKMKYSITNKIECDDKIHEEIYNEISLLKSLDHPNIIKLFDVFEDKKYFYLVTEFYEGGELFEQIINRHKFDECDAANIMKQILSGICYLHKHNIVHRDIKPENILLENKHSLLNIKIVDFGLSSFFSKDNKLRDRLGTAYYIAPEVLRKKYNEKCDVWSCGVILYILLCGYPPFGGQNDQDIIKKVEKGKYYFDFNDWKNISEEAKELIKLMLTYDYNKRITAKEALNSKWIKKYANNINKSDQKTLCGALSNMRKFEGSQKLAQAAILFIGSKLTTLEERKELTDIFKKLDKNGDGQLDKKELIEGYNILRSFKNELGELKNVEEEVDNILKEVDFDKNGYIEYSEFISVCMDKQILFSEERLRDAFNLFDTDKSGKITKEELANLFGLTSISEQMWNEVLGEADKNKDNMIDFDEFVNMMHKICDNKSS

As to `CN(C(=O)c1cc2c(-c3cncnc3)cccc2[nH]1)c1ccccc1` [TCMDC-134637], the IC50 (commonly the concentration that inhibits the measured activity by half) in assay [1] was found to be 0.271 µM. Moreover, the PCT_INHB_DD2 with P. falciparum DD2 is reported as 99. The PCT_INHIB_HEPG2 in the assay with HepG2 cells (HepG2 cells, ref ChEMBL) is recorded as 1. In addition, in the assay on P. falciparum 3D7 cells (P. falciparum 3D7, ref ChEMBL), the PCT_IHB_3D7 is reported as 92 and the pXC50_3D7 is 6.202. Moreover, the PCT_INHIB_3D7_PFLDH in the assay on 3D7 PFLDH [2] is given as 0.
As to `CS(=O)(=O)Cc1ccc(Nc2nccc(-c3c(-c4cccc(NC(=O)c5c(F)cccc5F)c4)nn4ccccc34)n2)cc1` [TCMDC-135669], the PCT_INHIB_3D7_PFLDH in the assay with 3D7 PFLDH [3] is 0. For the same compound, the IC50 in assay [1] is 0.02 µM; in assay [4], 0.276 µM; in assay [5], 0.052 µM; against PKG it was more than 10 µM. Moreover, the PCT_INHIB_HEPG2 in the assay on HepG2 cells (setting [6]) was 78. For the same compound, the PCT_IHB_3D7 with P. falciparum 3D7 cells (setting [7]) was 99. In the assay on P. falciparum 3D7 cells (setting [7]), the pXC50_3D7 is given as 6.824. Besides, the PCT_INHB_DD2 in the assay on DD2 is 75.
On to `NS(=O)(=O)c1cccc(Nc2nccc(-c3c(-c4cccc(NC(=O)c5c(F)cccc5F)c4)nn4ccccc34)n2)c1` [TCMDC-135780], for which, in the assay on 3D7 PFLDH [3], the PCT_INHIB_3D7_PFLDH is listed as 2. Also, the IC50 is 0.02 µM in assay [1], 0.051 µM in assay [5] and more than 10 µM on PKG. In the assay with HepG2 cells (setting [6]), the PCT_INHIB_HEPG2 is 81. For the same compound, the PCT_IHB_3D7 in the assay on P. falciparum 3D7 cells (setting [7]) is on record as 98. In the assay with P. falciparum 3D7 cells (setting [7]), the pXC50_3D7 is reported as 7.1329. Also, the PCT_INHB_DD2 in the assay with DD2 was 97.
Regarding `NS(=O)(=O)CCc1cccc(Nc2nccc(-c3c(-c4cccc(NC(=O)c5c(F)cccc5F)c4)nn4ccccc34)n2)c1` [TCMDC-135791], the PCT_INHIB_3D7_PFLDH in the assay on 3D7 PFLDH [3] was 3. The IC50 in [1] was 0.02 µM; in assay [5], 0.029 µM; against PKG, more than 10 µM. Also, the PCT_INHIB_HEPG2 with HepG2 cells (setting [6]) was 84. Also, the PCT_IHB_3D7 in the assay on P. falciparum 3D7 cells (setting [7]) was 98. In addition, the pXC50_3D7 with P. falciparum 3D7 cells (setting [7]) is 7.234. For the same compound, the PCT_INHB_DD2 in the assay with DD2 is given as 97.
For the compound `CN1CCN(c2ccc(Nc3nccc(-c4c(-c5cccc(NC(=O)c6c(F)cccc6F)c5)nn5ccccc45)n3)cc2)CC1` [TCMDC-135818], the PCT_INHIB_3D7_PFLDH with 3D7 PFLDH [3] is 0. Besides, the IC50 in assay [1] was found to be 0.035 µM; in [5] it was 0.075 µM; at PKG it was 0.115 µM. Moreover, in the assay with HepG2 cells (setting [6]), the PCT_INHIB_HEPG2 was 86. Besides, the PCT_IHB_3D7 in the assay with P. falciparum 3D7 cells (setting [7]) is listed as 98. In addition, in the assay on P. falciparum 3D7 cells (setting [7]), the pXC50_3D7 is listed as 6.95. Moreover, the PCT_INHB_DD2 with DD2 was 98.
For `O=C(Nc1cccc(-c2nn3ccccc3c2-c2ccnc(Nc3ccc(-c4cc[nH]n4)cc3)n2)c1)c1c(F)cccc1F` [TCMDC-135915], the PCT_INHIB_3D7_PFLDH in the assay with 3D7 PFLDH [3] was 5. Besides, the IC50 in assay [1] was 0.022 µM; in assay [5] it was 0.307 µM; at PKG it was more than 10 µM. The PCT_INHIB_HEPG2 in the assay with HepG2 cells (setting [6]) is recorded as 68. In addition, in the assay on P. falciparum 3D7 cells (setting [7]), the PCT_IHB_3D7 was 98. The pXC50_3D7 with P. falciparum 3D7 cells (setting [7]) is given as 6.7232. Further, the PCT_INHB_DD2 in the assay on DD2 is listed as 98.
In the case of `O=C(Nc1cccc(-c2nn3ccccc3c2-c2ccnc(Nc3ccc(NCCCN4CCOCC4)c(F)c3)n2)c1)c1c(F)cccc1F` [TCMDC-135921], the PCT_INHIB_3D7_PFLDH in the assay with 3D7 PFLDH [3] is reported as 0. The IC50 in assay [1] was 0.038 µM; in assay [4] it was 0.58 µM; in [5], 0.315 µM; on PKG, 5.46 µM. Moreover, the PCT_INHIB_HEPG2 in the assay with HepG2 cells (setting [6]) is listed as 86. The PCT_IHB_3D7 with P. falciparum 3D7 cells (setting [7]) was 100. Moreover, the pXC50_3D7 in the assay with P. falciparum 3D7 cells (setting [7]) is 6.586. In addition, in the assay on DD2, the PCT_INHB_DD2 is recorded as 97.
As to `Cl.NCc1ccc(Nc2nccc(Nc3ccc(-c4ccccc4)cc3)n2)cc1` [TCMDC-136004], the IC50 in [1] worked out at 0.375 µM. In addition, in the assay with P. falciparum DD2, the PCT_INHB_DD2 was 98. Also, in the assay with HepG2 cells (HepG2 cells, ref ChEMBL), the PCT_INHIB_HEPG2 is 47. In addition, in the assay on P. falciparum 3D7 cells (P. falciparum 3D7, ref ChEMBL), the PCT_IHB_3D7 is recorded as 100 and the pXC50_3D7 is on record as 6.05. The PCT_INHIB_3D7_PFLDH with 3D7 PFLDH [2] is 0.
For `Cc1cc(F)ccc1-c1nc(Nc2ccncc2)c2ccn(C)c2n1` [TCMDC-141231], the IC50 in assay [1] was found to be 0.04 µM. Also, in the assay with P. falciparum DD2, the PCT_INHB_DD2 was 8. In the assay on HepG2 cells (HepG2 cells, ref ChEMBL), the PCT_INHIB_HEPG2 was 9. For the same compound, in the assay with P. falciparum 3D7 cells (P. falciparum 3D7, ref ChEMBL), the PCT_IHB_3D7 is on record as 89 and the pXC50_3D7 is reported as 6.027. Moreover, the PCT_INHIB_3D7_PFLDH with 3D7 PFLDH [2] is 5.
